The record followed here is patent publication US20260234217A1, “USE OF BMP RECEPTOR ALK1 INHIBITORS IN OSTEOARTHRITIS THERAPIES” (The Regents of the University of California, priority 2023, published 2026).

The subject of the experiment is articular cartilage of DMM mice. Kind of experiment: DMM model of post-traumatic OA: Safranin-O/Fast Green staining and OARSI scoring of articular cartilage damage. To be noted: for articular cartilage damage (SOFG staining, OARSI scoring): treatment from the time of DMM surgery, weekly, compared to PBS. In kind it is in vivo, mouse. As to the method: FIG. 13. Growth differentiation factor 11 (GDF11, see, e.g., NCBI Reference Sequence: NP_005802.1) competes with BMP9/10 for binding to BMP type II receptors ACVRIIA or ACVRIIB, thereby preventing the association of BMP type I receptor ALK1 with ACVRIIA/B and decreasing BMP signaling. […] We tested this hypothesis by locally injecting GDF11 (50 ng/dose) into the knee joint space at mice with established post-traumatic OA. (A) Experimental Outline (B) Safranin-O/Fast Green (SOFG) Staining of sagittal sections of the knee joint, femur (top) and tibia (bottom) for proteoglycan (cartilage; red) and bone (green) at week 8 after DMM or Sham surgery. Mice were treated with either GDF11, or Phosphate Buffered Saline (PBS) after received surgery (n=5/group). 4-Week DMM mice were sacrificed 4 weeks after surgery and received no treatment (n=6). AC damage indicated by dotted line. (C-D) Osteoarthritis Research Society International (OARSI) scoring of AC damage in the (C) medial tibial plateau and (D) medial femoral condyle in representative sections of each treatment at week 4 or 8 after surgery. All data are shown as mean bar+/−standard deviation *p<0.05. Data analysis performed was one-way ANOVA. Scale 250 uM.
Mice (C57BL/6J) were purchased from The Jackson Laboratory. All mice were housed on a 12-hour light/dark cycle with unrestricted access to standard mouse food and water. The DMM model of injury induced OA was performed on mice at 12 weeks of age by opening the joint capsule and transecting the medial meniscotibial ligament in the right knee, destabilizing the medial meniscus(48). A sham operation was performed on the left knee of each mouse by observing the medial meniscotibial ligament but not transecting it. Mice were administered carprofen 5 mg/kg (Zoetis; 1041283) subcutaneously 30 minutes prior to surgery, immediately post-surgery, and 24 hours post-surgery to minimize pain.
Treatments were initiated either 1 day after DMM surgery once a week for 8 weeks, or 1 month after DMM surgery twice a week for 4 weeks. Mice were sacrificed at 20 weeks of age (2 months after surgery). To understand the level of articular cartilage damage 1 month after DMM surgery, a cohort of mice was sacrificed at 16 weeks old (FIG. 4).
Knee joint samples were harvested and fixed in 4% Paraformaldehyde for 3 days, and subsequently decalcified in formic acid (Statlab; 1414-32) for 3 days and embedded in paraffin. Sagittal sections 7 micrometers in thickness were taken and stained using Safranin-O (Sigma-Aldrich; S8884-25G), fast green (Sigma-Aldrich; F7258-25G), and hematoxylin (Fisherbrand; 245-656) using a standard histology protocol. Images were taken with the Olympus BX60 brightfield microscope using a 10× objective lens. Representative sections throughout the medial and lateral portion of side were chosen for histological analysis, resulting in 5 sections being imaged for both portions of the joint.
The 10 total sections per joint chosen for histology received randomized sample numbers and were given to three independent researchers who scored the level of cartilage damage based on OARSI guidelines (84). OARSI scores were analyzed with Prism 9 Software (GraphPad) using two-way ANOVA and Tukey's multiple comparisons test post-hoc. Scoring was performed by at least three experienced investigators blinded to treatment/genotype. Scores were averaged for the medial tibial plateau, medial femoral condyle, lateral tibial plateau, and lateral femoral condyle for each sample.

[1] abbreviates: delayed treatment, week 8, vs vehicle-treated mice examined 4 weeks after surgery.

Regarding `COc1cc(-c2cc(-c3ccc(N4CCNCC4)cc3)cnc2C)cc(OC)c1OC` [LDN-214117], the “articular cartilage damage, femoral surface” value under setting [1] was “less damage”. The “articular cartilage damage, tibial surface” value under setting [1] was “less damage”. Also, the “articular cartilage damage (OARSI scoring)” value (treatment beginning 4 weeks after DMM, examined 8 weeks after surgery, vs vehicle-treated mice at 8 weeks) is “significantly less damage”. Further, the “articular cartilage damage (SOFG staining, OARSI scoring)” value (week 8) was “sufficient to prevent degradation of AC” and the “articular cartilage damage (SOFG staining, OARSI scoring)” value (week 8, listed as BMP-KI) is listed as “protection of articular cartilage”.
